# According to US7381521B2, “Anti-pathogenic composition useful in blood preservation” (Altachem Pharma Ltd., priority 2001, dated 2008):
# Tested on: erythrocytes in heparinized bovine blood
# Assay: In-vitro hemolysis of erythrocytes in heparinized whole blood, absorbance at 413 nm
# Details: 1 hour at 37° C.
# Description: The effect of the compounds on the in-vitro hemolysis of erythrocytes in heparinized whole blood is monitored by a spectrophotometric method.
# Various formulations and concentrations of the test compound are added to heparinized bovine blood and mixed gently in a 1.5 ml microcentrifuge tube. The sample is allowed to incubate for 1 hour at 37° C. At the end of incubation, the samples are removed from the incubator and centrifuged at 2000 rpm for 5 minutes. A 200 μl aliquot of the supernatant is removed from each sample into a 96 well microtiter plate and read at 413 nm. The absorbance of the test sample is compared to the control sample containing phosphate buffered saline, pH 7.2.
row,Compound,Concentration at which hemolysis is not observed
1,C[N+](C)(C)CCCCCC[N+](C)(C)C [Hexamethonium Bromide],0.0125%
2,C[N+](C)(C)CCCCCCCCCC[N+](C)(C)C.[I-].[I-] [Decamethonium Iodide],0.0125%
3,Tergitol NP-9,0.001%
